Test results: publication PMC8536124 (International Journal of Molecular Sciences, 2021)
Like-named read-outs stand apart in the source and are kept apart here.

Key:
chorioallantoic membrane [1] = assay: Chorioallantoic membrane (CAM) angiogenesis assay; format: in vivo, chicken; conditions: 1 µM in 0.5% DMSO
Protocol: CAM test also allows the assessment of a drug’s activity on tumor proliferation and distant metastasis, as well as drug toxicity. […] No anomalies were noticed in the angiogenic process after treatment with 0.5% DMSO in distilled water used as control.
The basic CAM assay protocol makes use of fertilized chicken eggs, incubated at 37 °C, under controlled humidity. On the third day of incubation (embryonic day of development, EDD), a small opening was made at one end of the eggs and 5–6 mL of albumen were removed, thus facilitating the separation of the chorioallantoic membrane. On EDD 4, a window was cut on the upper side of the egg and subsequently resealed, returning the specimens to the incubator. On EDD 7 (0 h), 10 µL of each test solution were administered inside a plastic ring previously applied on the intensely vascularized surface of the CAM [93]. All compounds were tested at a concentration of 1 µM in DMSO 0.5%, which also represented the control sample. All samples were daily applied in the same volume, for 72 h. For each analyzed sample, 5 eggs were used, and all samples were applied in triplicate. Macroscopic evaluation was daily performed in ovo by means of stereomicroscopy (ZEISS SteREO Discovery.V8, Göttingen, Germany), and all images were registered and processed by Axiocam 105 color, AxioVision SE64. Rel. 4.9.1 Software, (ZEISS Göttingen, Germany), ImageJ (ImageJ Version 1.50e, https://imagej.nih.gov/ij/index.html, accessed on 3 June 2021) and GIMP software (GIMP v 2.8, https://www.gimp.org/, accessed on 3 June 2021).

SF-539 = assay: NCI-60 screening (SRB); format: cell-based, human; conditions: SF-539, five-dose
SN12C = assay: NCI-60 screening (SRB); format: cell-based, human; conditions: five-dose
K-562 = assay: NCI-60 screening (SRB); format: cell-based, human
SK-MEL-2 = assay: NCI-60 screening (SRB); format: cell-based, human; conditions: five-dose
A375 cells = assay: Cell morphology and confluence; format: cell-based, human; conditions: all concentrations (0.1, 1, 5 μM), 24 h
Protocol: A morphological examination of the tested cells was conducted in order to provide additional data for the investigated compounds in terms of their biological activity.

M14 = assay: NCI-60 screening (SRB); format: cell-based, human; conditions: five-dose
CNS cancer = assay: cells; format: cell-based
Text: (§1) The experimental data allow the assessment of the cytostatic effect, indicated by growth inhibition values ranging between 0 and 100, as well as of the cytotoxic effect, indicated by negative values.
(§2) The mean GI50 (molar concentration of the compound that inhibits 50% net cell growth), TGI (molar concentration of the compound leading to the total inhibition), and LC50 (molar concentration of the compound leading to 50% net cell death (presented in negative logarithm)) values across each cell line are shown in Table 2.
(§3) The selectivity index (SI), calculated as the ratio between the full panel MG_MID60 (μM) of compounds 4, 6, and 9 by their respective subpanels MG_MID of the cell line (μM), was introduced as a quantification tool for the selectivity of each compound in terms of anticancer effect (Table 3).
(§4) Primary anticancer assays were performed according to the NCI protocol, as described elsewhere (see e.g., http://dtp.nci.nih.gov accessed on 1 November 2018). The compounds were added at a single concentration, and the cell cultures were incubated for 48 h. The end point determinations were made with a protein-binding dye, sulforhodamine B (SRB). […] The percentage of growth was evaluated spectrophotometrically versus controls not treated with test agents after 48 h exposure and using SRB protein assay to estimate cell viability or growth. Three antitumor activity dose-response parameters were calculated for each cell line. Furthermore, mean graph midpoints (MG_MID) were calculated for each of the parameters, giving an average activity parameter over all cell lines for the tested compound. For the MG_MID calculation, insensitive cell lines were included with the highest concentration tested.

HOP-92 = assay: NCI-60 screening (SRB); format: cell-based, human; conditions: five-dose
NCI-H23 = assay: NCI-60 screening (SRB); format: cell-based, human; conditions: five-dose
[2] = test system: NCI-60 cancer cell line panel; assay: NCI-60 screening (SRB), full panel; format: cell-based, human; conditions: for activity at 10 µM: 60 cell lines, 48 h
Text: as §1, §2, §3, §4

HT29 = assay: NCI-60 screening (SRB); format: cell-based, human
SF-268 = assay: NCI-60 screening (SRB); format: cell-based, human; conditions: five-dose
chorioallantoic membrane [3] = assay: HET-CAM irritation assay
Text: In this assay, the irritation potential may range from 0 to 21, with 0 being non-irritant and 21 being the most irritant. […] The irritation score was established according to Luepke scale: 0–0.9 indicates non-irritant, 1–4.9 indicates weakly irritant, 5–8.9 indicates moderately irritant, while 9–21 means strongly irritant (Table 6) [88, 89].
The in vivo Hen’s Egg Chorioallantoic Membrane Test (HET-CAM) assay determines a potential irritant effect on the vascular plexus of the chorioallantoic membrane [94]. The HET-CAM method was carried out following ICCVAM recommendations published in November 2016 in Appendix G and adapted to our conditions [88, 95, 96]. Thus, a volume of 300 µL of control or test solution was applied and the modifications produced at the CAM level were monitored by means of stereomicroscopy (Discovery 8 Stereomicroscope, Zeiss), registering significant images (Axio CAM 105 color, Zeiss), before application after 5 min of contact with the samples. All images were processed using Zeiss ZEN software, Gimp 2.8, and ImageJ software.
Negative control was represented by distilled water and solvent control DMSO 0.5%, and positive control by sodium lauryl sulphate (SLS) 0.5% in distillate water. The test substances were tested in concentrations of 1 µM.
Finally, the following reactions were: hemorrhage—H (blood vessel bleeding), vascular lysis—L (disintegration of blood vessels), coagulation—C (intra- or extra-vascular protein denaturizing). A variety of analysis methods may be used to assess irritancy potential of test substances. One analysis method that has been used extensively is an irritation score (IS). The formula used to generate an IS value is:(1) IS=5×301−Sec H/300+7×300−Sec L/300+9×301−Sec C/300 where: H = hemorrhage; L = vessel lysis; C = coagulation; hemorrhage time (Sec H) = onset of hemorrhage reactions on CAM (in seconds); lysis time (Sec L) = onset of vessel lysis on CAM (in seconds); coagulation time (Sec C) = onset of coagulation formation on CAM (in seconds). Means values are obtained. […] The IS values range on a scale between 0 and 21.

HCC-2998 = assay: NCI-60 screening (SRB); format: cell-based, human; conditions: five-dose
[4] = Homo sapiens, read-out: LC50 (the source's name)

Compound: CCN1CCN(C(=O)[C@]23CCC(C)(C)C[C@H]2C2=CC[C@@H]4[C@@]5(C)C/C(=C/c6cccnc6)C(=O)C(C)(C)[C@@H]5CC[C@@]4(C)[C@]2(C)CC3)CC1 [Compound 6]
- effect on angiogenesis (CAM) (chorioallantoic membrane [1]; EDD7 to EDD10, up to 72 h post-treatment): did not significantly alter the angiogenesis process
- effect on angiogenesis (CAM) (chorioallantoic membrane [1]; after 24 h): weak antiangiogenic process
- GI50 (SF-539; Homo sapiens): 1.62 µM
- CC50 (SF-539; [4]): 5.55 µM
- TGI (SF-539): 3.00 µM
- GI50 (SN12C; Homo sapiens): 1.22 µM
- CC50 (SN12C; [4]): 5.3 µM
- TGI (SN12C): 2.54 µM
- GI50 (K-562; Homo sapiens, K562, five-dose): 0.443 µM
- CC50 (K-562; Homo sapiens, K562, five-dose, read-out: LC50 (the source's name)): > 100 µM
- TGI (K-562; five-dose): 3.34 µM
- GI50 (SK-MEL-2; Homo sapiens): 1.93 µM
- CC50 (SK-MEL-2; [4]): 8.16 µM
- TGI (SK-MEL-2): 3.96 µM
- cell morphology and confluence (A375 cells): noticeable decrease in cell confluence
- GI50 (M14; Homo sapiens): 1.6 µM
- CC50 (M14; [4]): 6.2 µM
- TGI (M14): 3.15 µM
- TGI MG_MID (CNS cancer; CNS cancer subpanel, five-dose): 3.50 µM
- SI (TGI) (CNS cancer; CNS cancer, MG_MID60/subpanel MG_MID): 1.80
- GI50 (CNS cancer; Homo sapiens, CNS cancer subpanel, five-dose, read-out: GI50 MG_MID): 1.63 µM
- CC50 (CNS cancer; Homo sapiens, CNS cancer subpanel, five-dose, read-out: LC50 MG_MID): 22.1 µM
- GI50 (HOP-92; Homo sapiens): 1.06 µM
- CC50 (HOP-92; [4]): 10.1 µM
- TGI (HOP-92): 3.26 µM
- GI50 (NCI-H23; Homo sapiens): 2.1 µM
- CC50 (NCI-H23; [4]): 27.8 µM
- TGI (NCI-H23): 5.85 µM
- Positive Cytostatic Effect (cell lines with percent growth 0 to 50 / total) ([2]; 1 dose 10 µM): 30/60
- Positive Cytotoxic Effect (cell lines with percent growth <0 / total) ([2]; 1 dose 10 µM): 4/60
- GI50 ([2]; Homo sapiens, five-dose, bound, read-out: GI50 against all human tumor cells): < 4 µM
- GI50 ([2]; Homo sapiens, mean graph midpoint, full panel, five-dose, read-out: GI50 MG_MID60): 1.52 µM
- CC50 ([2]; Homo sapiens, mean graph midpoint, full panel, five-dose, read-out: LC50 MG_MID60): 32.4 µM
- activity at 10 µM ([2]; Homo sapiens, 1 dose 10 µM, read-out: Mean Growth, %): 23.4%
- activity at 10 µM ([2]; Homo sapiens, 1 dose 10 µM, read-out: Range of Growth, %): -91 to 83.8%
- TGI MG_MID60 ([2]; mean graph midpoint, full panel, five-dose): 6.29 µM
- GI50 ([2]; mean graph midpoint, full panel, five-dose, read-out: GI50 MG_MID60): 1.53 µM
- selectivity class ([2]; toward some individual cell lines at the LC50 level): moderate selectivity (Ratios between 3 and 6 are indicators of moderate selectivity)
- GI50 (HT29; Homo sapiens, HT-29, five-dose): 1.71 µM
- CC50 (HT29; Homo sapiens, HT-29, five-dose, read-out: LC50 (the source's name)): 44.5 µM
- TGI (HT29; five-dose): 4.67 µM
- GI50 (SF-268; Homo sapiens): 1.59 µM
- CC50 (SF-268; [4]): 85.7 µM
- TGI (SF-268): 4.79 µM
- Irritation Score (chorioallantoic membrane [3]; 300 µL, 5 min, test compounds 1 µM, scale 0 to 21): 0
- Type of Effect (chorioallantoic membrane [3]; Luepke scale): Non-irritant
- GI50 (HCC-2998; Homo sapiens): 1.58 µM
- CC50 (HCC-2998; [4]): 6.17 µM
- TGI (HCC-2998): 3.12 µM
